Assays:
HCT-15 (colon) = test: Sulforhodamine B growth inhibition, HCT-15 (colon); assay type: cell-based, human; conditions: for inhibition at 100 µM: Homo sapiens, HCT-15, read-out: Growth inhibition by cell line (%) HTC-15
Experimental: (§1) For the evaluation of the cytotoxic effect of Andranone on neoplastic cells, 6 cell lines were used:
(§2) HCT-15 (colon), MCF-7 (breast), K-562 (leukemia), U-251 (central nervous system), PC-3 (prostate), SKUL (lung) and COST-7 (cervical uterus) from the National Cancer Institute (NCI) of the United States. The cytotoxicity of Andranone was determined in sixfold microcultures using preferable Andranone concentrations between 0.1 and 1.0 μM, more specifically between 0.1 and 0.6 μM and mostly between 0.1 and 0.3 μM. Cell viability and growth were measured indirectly by the sulforhodamine B method according to procedures validated by the NCI, using salicylic acid and Mezalasin as negative control compounds, and Cis-platinum as a control antineoplastic drug at concentrations of 100 μM.

MCF-7 (breast) = test: Sulforhodamine B growth inhibition, MCF-7 (breast); assay type: cell-based, human; conditions: for inhibition at 100 µM: Homo sapiens, MCF7, read-out: Growth inhibition by cell line (%) MCF-7
Experimental: as §1, §2

K-562 (leukemia) = test: Sulforhodamine B growth inhibition, K-562 (leukemia); assay type: cell-based, human; conditions: for inhibition at 100 µM: Homo sapiens, K562, read-out: Growth inhibition by cell line (%) K-562
Experimental: as §1, §2

[1] = system: U-251 (central nervous system); test: Sulforhodamine B growth inhibition, U-251 (central nervous system); assay type: cell-based, human; conditions: for inhibition at 100 µM: Homo sapiens, U-251, read-out: Growth inhibition by cell line (%) U-251
Experimental: as §1, §2

PC-3 (prostate) = test: Sulforhodamine B growth inhibition, PC-3 (prostate); assay type: cell-based, human; conditions: for inhibition at 100 µM: Homo sapiens, read-out: Growth inhibition by cell line (%) PC-3
Experimental: as §1, §2

SKUL (lung) = test: Sulforhodamine B growth inhibition, SKUL (lung); assay type: cell-based, human; conditions: for inhibition at 100 µM: Homo sapiens, read-out: Growth inhibition by cell line (%) SKUL
Experimental: as §1, §2

COST-7 (cervical uterus) = test: Sulforhodamine B growth inhibition, COST-7 (cervical uterus); assay type: cell-based, human; conditions: for inhibition at 100 µM: Homo sapiens, read-out: Growth inhibition by cell line (%) COST-7
Experimental: as §1, §2

U-251 cell line = test: Fluorescence analysis of effect on the cell membrane; assay type: cell-based, human; conditions: high and low concentration (10 and 100 μM)
Experimental: To determine the Andranone action mechanism on neoplastic cells, a fluorescence analysis was performed on cells of the U-251 cell line treated with 10 and 100 μM of cis-platinum and 0.1 and 0.2 μM of Andranone.

[2] = system: PFSK-1 (brain, cerebral hemisphere); test: In vitro cytotoxic activity IC50, PFSK-1; assay type: cell-based, human
Excerpt: (§3) Additionally, the cytotoxic activity was weighted by the IC50 of Andranone on 12 cell lines of neuronal origin, PFSK-1 (brain, cerebral hemisphere); A-172 (Glioblastoma, patient); SW1088 (Brain Fibroblast); Daoy (Brain, Cerebellum); 1321N1 (Normal brain cells) HT-29 (Colorectal Carcinoma); SW-620 (Colorectal carcinoma); H-358 (Lung carcinoma); A-549 (Lung carcinoma); LA-N-5 (Neuroblastoma); SK—N-SH (Neuroblastoma); and L-929 (Mouse fibrosarcoma) using Bevacizumab as a control. The IC50 determination of Andranone was carried out in microcultures in sixfold.

A-172 (Glioblastoma) = test: In vitro cytotoxic activity IC50, A-172; assay type: cell-based, human
Excerpt: as §3

[3] = system: SW1088 (Brain Fibroblast); test: In vitro cytotoxic activity IC50, SW1088; assay type: cell-based, human
Excerpt: as §3

Daoy (Brain, Cerebellum) = test: In vitro cytotoxic activity IC50, Daoy; assay type: cell-based, human
Excerpt: as §3

[4] = system: 1321N1 (Normal brain cells); test: In vitro cytotoxic activity IC50, 1321N1; assay type: cell-based, human
Excerpt: as §3

[5] = system: HT-29 (Colorectal Carcinoma); test: In vitro cytotoxic activity IC50, HT-29; assay type: cell-based, human
Excerpt: as §3

[6] = system: SW-620 (Colorectal carcinoma); test: In vitro cytotoxic activity IC50, SW-620; assay type: cell-based, human
Excerpt: as §3

H-358 (Lung carcinoma) = test: In vitro cytotoxic activity IC50, H-358; assay type: cell-based, human
Excerpt: as §3

A-549 (Lung carcinoma) = test: In vitro cytotoxic activity IC50, A-549; assay type: cell-based, human
Excerpt: as §3

LA-N-5 (Neuroblastoma) = test: In vitro cytotoxic activity IC50, LA-N-5; assay type: cell-based, human
Excerpt: as §3

SK-N-SH (Neuroblastoma) = test: In vitro cytotoxic activity IC50, SK-N-SH; assay type: cell-based, human
Excerpt: as §3

[7] = system: L-929 (Mouse fibrosarcoma); test: In vitro cytotoxic activity IC50, L-929; assay type: cell-based
Excerpt: as §3

[8] = system: human peripheral blood lymphocytes; test: Micronucleus test in human peripheral blood lymphocytes; assay type: cell-based
Experimental: […] At 44 h, cytochalasin B (4.5 μg/mL) was added to all cultures and at 72 h the lymphocytes were harvested by centrifugation at 1500 rpm for 10 min. The cell bud was divided into 2 parts, one to perform the micronucleus test and the other was kept in PBS (pH 7.5) at −80° C. to perform the RT-qPCR tests.
For the micronucleus test, the first part of the cell bud was prefixed with 1 mL of Carnoy's fixative (3:1) and centrifuged at 1500 rpm for 10 min. The supernatant was removed, and the cell bud was resuspended. 5 mL of Carnoy fixative was added and centrifuged again at 1500 rpm for 10 min. This step was repeated 2 more times. Lamellae were made on slides using the drip technique and allowed to air dry. The samples were stained in 5% Giemsa dye and analyzed in the optical microscope at 40× to determine the frequency of micronuclei in 1000 cells (in duplicate).

For `N.N.[Cl][Pt][Cl]` [Cisplatin], the “Growth inhibition by cell line (%) HTC-15” value (HCT-15 (colon); 100 μM) was 87.49%, the “Growth inhibition by cell line (%) MCF-7” value (MCF-7 (breast); 100 μM) was 42.65% and the “Growth inhibition by cell line (%) K-562” value (K-562 (leukemia); 100 μM) was 79.15%. The “Growth inhibition by cell line (%) U-251” value ([1]; 100 μM) was 65.9%, the “Growth inhibition by cell line (%) PC-3” value (PC-3 (prostate); 100 μM) was 32.42% and the “Growth inhibition by cell line (%) SKUL” value (SKUL (lung); 100 μM) was 81.35%. For the same compound, the “Growth inhibition by cell line (%) COST-7” value (COST-7 (cervical uterus); 100 μM) was 43.39% and the “fluorescence analysis, cell membrane / cell death” value (U-251 cell line) was “cell membrane alteration without being so obvious”.
“Bevacizumab: Bevacizumab used as a control in the IC50 determination” showed an IC50 [2] of 31.2 µM, an IC50 (A-172 (Glioblastoma)) of 41.4 µM and an IC50 [3] of 47.3 µM. It also gave an IC50 (Daoy (Brain, Cerebellum)) of 29.4 µM, an IC50 [4] of 39.5 µM and an IC50 [5] of 38.4 µM. The IC50 [6] was 27.2 µM, the IC50 (H-358 (Lung carcinoma)) was 115 µM and the IC50 (A-549 (Lung carcinoma)) was 105 µM. For the same compound, the IC50 (LA-N-5 (Neuroblastoma)) was 79.3 µM, the IC50 (SK-N-SH (Neuroblastoma)) was 88.4 µM and the IC50 [7] was 126 µM.
For `O=C(O)c1ccccc1O` [Salicylic acid], the inhibition at 100 µM (HCT-15 (colon)) was < 3.1%, the inhibition at 100 µM (MCF-7 (breast)) was 4.9% and the inhibition at 100 µM (K-562 (leukemia)) was 6.6%. The inhibition at 100 µM [1] was 6.8%, the inhibition at 100 µM (PC-3 (prostate)) was 6.9% and the inhibition at 100 µM (SKUL (lung)) was 10.1%. It also gave an inhibition at 100 µM (COST-7 (cervical uterus)) of 11.2%.
In the case of Bleomycin, the IDN ([8]; Bleomycin 3.2 μg/mL) is reported as 1.60 ± 0.06, the IPBC ([8]; Bleomycin 3.2 mg/mL) is reported as 1.56 ± 0.05 and the “Relative cytotoxicity (%)” value ([8]; Bleomycin 3.2 mg/mL) is reported as 34.50%. The “frequency of MN” value ([8]; positive control, 3.2 μg/mL, 72 h) was “significantly increased”.
For `Nc1ccc(O)c(C(=O)O)c1` [Mesalazine], the inhibition at 100 µM (HCT-15 (colon)) was < 3.1%, the inhibition at 100 µM (MCF-7 (breast)) was 11.9% and the inhibition at 100 µM (K-562 (leukemia)) was 8.1%. For the same compound, the inhibition at 100 µM [1] was 6.3%, the inhibition at 100 µM (PC-3 (prostate)) was 3.1% and the inhibition at 100 µM (SKUL (lung)) was < 3.1%. For the same compound, the inhibition at 100 µM (COST-7 (cervical uterus)) was < 3.1%.

Source: US20250195472A1, “Indole Alkaloid as Antineoplastic Agent” (NAPP TECNOLOGIAS, S.A. DE C.V., priority 2021, published 2025)
